Laboratory results from patent US11952360B2, “Dibenzothiophene compounds” (Saint Louis University, priority 2019, dated 2024).

Columns and labels:
[1] = tested on: HeLa cells; experiment: Metabolic proliferation (MTS) assay, toxicity in HeLa cells; type: cell-based
Protocol: HeLa cells were cultured in RPMI (ThermoFisher) supplemented with 10% FBS (ThermoFisher) and 1% penicillin-streptomycin (ThermoFisher 10000 U/mL). Cells (5000 cells/well in 100 μL) were plated in a 96-well culture plate (Greiner) and incubated for […]. Fifty microliters of the compound dissolved in complete media (final DMSO concentration 1%) at final concentrations of 100 μM, 10 μM, 1 μM, 100 nM, 10 nM, and 1 nM were added to the appropriate wells. After incubation of the cells at 37° C. in a humidified atmosphere of 5% CO2 for 120 h, the cells were stained and incubated with MTS reagent (Promega) for 2 h to determine cell viability. The absorbance of each well was taken at 490 nm using a multimode plate reader (FlexStation 3, Molecular Devices, San Diego, Calif.). GraphPad Prism was used to analyze data to determine the percent viability. […] Quadruplicate measurements were performed for each compound.
The toxicity of 4 and 9 was determined in HeLa cells. The HeLa cells were treated with concentrations of the respective dye varying between 1 nm and 100 μM for 72 hours.

[2] = Fluorescence excitation/emission spectra and fluorescent quantum yield (single point method, naphthalene standard); type: physicochemical; details: for λex (excitation maxima): Measured in CAN; for λem (emission maxima) / φ (fluorescent quantum yield, single point method): Measured in CAN (acetonitrile); for φ (fluorescent quantum yield, single point method): naphthalene standard, absorbance 0.041 at 250 nm
Protocol: (§1) All chemicals were obtained from Alfa Aesar, Oakwood Chemical, Ark Pharm, ThermoFisher Scientific, and Sigma-Aldrich. They were used without further purification. Flash chromatography was performed using a Biotage Horizon with silica gel (SiliaFlash P60) purchased from SiliCycle. ^1H and ^13C NMR spectra were gathered on a Bruker DRX-400 in either DMSO-d6 or CDCl3. High-resolution mass spectra were measured using a ThermoScientific Q Exactive Orbitrap equipped with a Nano ESI ionization source. Absorption spectra were recorded using a Shimazdu UV-1800 UV-Vis spectrophotometer using samples contained in 10×10 mm quartz cell at a concentration of 0.01 mM. Fluorescence spectra were gathered on a Shuimazdu RF-5301 PC in a 10×10 mm quartz cuvette.
(§2) The two dyes, upon their successful synthesis and isolation, had their photophysical data gathered beginning with absorbance, which was measured through the visible and ultraviolet region. Absorbance spectra were gathered using 0.01 mM solutions of the respective compound in HPLC grade acetonitrile. The spectra are nearly identical. This was of no surprise as the chromophore is the same on both molecules; however, 9 has a more substantial absorbance than 4 with a respective molar absorptivity of 66,000 M^−1cm^−1 and 51,700 M^−1 cm^−1. The absorbance determination was followed by the fluorescence emission and excitation spectra being gathered using solutions where the absorbance of the respective compound was 0.041 at 250 nm in acetonitrile (FIG. 1). This was done to save material as the same solutions were then used to determine the fluorescent quantum yield. The excitation spectra of 4 and 9 followed the same pattern, though the two were slightly offset from one another when overlaid with respect to the x-axis.
The fluorescent quantum yield was then determined by the single point method with Eq. 1.
Naphthalene was used as the standard where it was also made into a solution with acetonitrile at a concentration which allowed the absorbance to be 0.041 at 250 nm. The fluorescent quantum yields of 4 and 9 were determined to be 0.40 and 0.67, respectively.

[3] = tested on: HeLa cells; experiment: Fluorescence imaging of HeLa cells without co-stain; type: cell-based; details: 5.0 uM dye, approximately 2 hours, no co-stain
Protocol: (§3) All images were captured with a Leica DM 400 B microscope with a DFC3000G camera (Leica Microsystems, Germany) and 63× oil immersion or 40× lenses. HeLa cells were staged according to the aforementioned methods. Leica LASX Core Software (Leica Microsystems, Germany) was used to acquire the images. All images were processed using ImageJ. The Pearson correlation coefficient was calculated using the image of a single cell using an ImageJ plugin called Colocalization Finder by Christophe Laummonerie and Jerome Mutterer of Institut de Biologie Moleculaire des Plantes.
Sterile glass poly-D-lysine coated #1.5 cover slips (NeuVitro), pre-incubated with culture medium, were placed in sterile 6-well plates. A single cell suspension of the HeLa (cervical cancer cell) cell line was prepared at 5×10^4 cells mL^−1 in the appropriate medium. Volumes of 2.0 mL were pipetted into each of the wells containing the coverslips. The 6-well plate was left overnight at 37.0° C. in a 5.0% CO2 incubator. Following the overnight incubation, the plate was aspirated dry and then PBS, containing the drug (at 5.0 uM and 0.10% DMSO) in a volume of 2.0 mL, was gently pipetted onto the cell monolayers attached to the glass cover slips. Cells on the cover slips were exposed to the dye for approximately 2 hours in the incubator at 37.0° C. in a 5.0% CO2. […]

[4] = tested on: HeLa cells; experiment: Fluorescence imaging of HeLa cells with CellMask Orange co-stain (colocalization); type: cell-based; details: for cellular localization: HeLa cells co-stained with CellMask Orange, 10 minutes; for Pearson correlation coefficient with CellMask Orange: HeLa cells, 10 minutes incubation, single cell image, DAPI vs Cy-5 filter sets
Protocol: as §3
To further optimize staining and understand the localization of the dyes in HeLa cells, a co-stain was introduced to the cells with the dyes while also utilizing a shorter incubation time. Sterile glass poly-D-lysine coated #1.5 cover slips (NeuVitro), pre-incubated with culture medium, were placed in sterile 6-well plates. A single cell suspension of the HeLa (cervical cancer cells) cell line was prepared at 5×10^4 cells ml-1 in the appropriate medium. Volumes of 2.0 mL were pipetted into each of the wells containing the coverslips. The 6-well plate was left overnight at 37.0° C. in a 5.0% CO2 incubator. Following the overnight incubation, the plate was aspirated and PBS, containing the CellMask Orange (ThermoFischer Scientific) (at 1000× dilution with 0.10% DMSO) in a volume of 1.8 mL, was gently pipetted onto the cell monolayers attached to the glass cover slips. To the CellMask doped PBS 200 μl of 4 or 9 at 50 μM was added to the respective well. Cells on the cover slips were exposed to the dye for approximately 10 minutes. Cells were washed with PBS and treated with 4.0% paraformaldehyde solution prepared in PBS, incubated for 30 minutes at room temperature for full fixation. Three washes with 1 ml of PBS were completed to ensure excess solution was rinsed away. Glass cover slips were removed and mounted on slides with ProLong Gold Antifade Mountant (ThermoFisher Scientific). The specimen was dried for several minutes and sealed with clear nail polish before visualized under a microscope.
The modest modification came in two parts; the PBS used to replace the media was now doped with a 1000× dilution of CellMask Orange (plasma membrane dye) and the incubation time for the co-stain and dyes was shortened to 10 minutes. These subtle modifications were done to determine if the dyes, 4 and 9, could be used with short incubation periods and to follow the manufacture's staining instructions for CellMask Orange. […] CellMask Orange is a known dye which readily localizes in the plasma membrane. […] The overlap was quantified using a Pearson correlation coefficient calculation with the Colocalization Finder plugin for ImageJ using a single cell image cropped from the images. […]

[5] = UV/visible absorbance spectra in acetonitrile; type: physicochemical; details: for molar absorptivity: 0.01 mM solutions in HPLC grade acetonitrile; for λabs (absorbance maxima): Measured in CAN
Protocol: as §1, §2

[6] = 100 μM, 72 hours (FIG. 4: 120 h)
[7] = concentrations needed for standard imaging protocols (range 1 nm to 100 μM), 72 hours

Row | SMILES | toxicity [1, 6] | toxicity [1, 7] | Stokes Shift [2] | λex (excitation maxima) [2] | λem (emission maxima) [2] | φ (fluorescent quantum yield, single point method) [2] | distribution of emission in the cell [3] | cellular localization [4] | Pearson correlation coefficient with CellMask Orange [4] | log εmax (maximum molar extinction coefficient) [5] | molar absorptivity [5] | λabs (absorbance maxima) [5]
1 | O=C(O)CCCc1ccc2c(c1)-c1ccccc1S2(=O)=O [Compound 4, 4-(5,5-dioxidodibenzo[b,d]thiophen-2-yl)butanoic acid] | display toxicity | neither dye displayed toxicity | 38 nm | 244 nm | 359 nm | 0.4 | stronger emission from the center of the cell | localize in the plasma membrane | 0.66 | 3.71 M^−1 cm^−1 | 51,700 M^−1cm^−1 | 244 nm
2 | CCCCCCCCc1ccc2c(c1)-c1cc(CCCC(=O)O)ccc1S2(=O)=O [Compound 9, 4-(8-octyl-5,5-dioxidodibenzo[b,d]thiophen-2-yl)butanoic acid] | display toxicity | neither dye displayed toxicity | 38 nm | 248 nm | 357 nm | 0.67 | more extranuclear emission | localize in the plasma membrane | 0.81 | 3.81 M^−1 cm^−1 | 66,000 M^−1cm^−1 | 247 nm
